Measurements published in patent publication US12060385B2, “Compounds for RNA capping and uses thereof” (GUANGZHOU HENOVCOM BIOSCIENCE CO., LTD., priority 2022, dated 2024).

Tests used:
Type in all cases: biochemical
T7 RNA Polymerase = T7 RNA Polymerase (Escherichia phage T7, UniProt P00573); conditions: 20 μL transcription system, Cap1 Analog 4 mM, 37° C. 2 to 3 hours
Protocol: • 1) A plasmid was linearized and the DNA template was purified. • 2) mRNA was synthesized in vitro with 51 types of capping structures of the present disclosure, or without any cap analogues. CleanCap®AG (3′OMe) (Trilink, N-7413) was applied as positive control group, uncapped mRNA was negative control group, and DNAase/RNase-Free water was a blank control group.
The system was incubated for 2 to 3 hours at 37° C. and digested by TURBO DNase for 15 min LiCl was used to precipitate mRNA for at least 30 min, or overnight, mRNA precipitates were then washed with 75% ethanol. After ethanol was quickly volatilized, mRNA was re-solubilized with RNase-Free water. • 3) The transcribed products were purified and the transcription yields were calculated.

mRNA = assay: Capping efficiency of mRNA with different cap analogs by LC-MS; conditions: LC-MS after RNase H cleavage
Protocol: In a PCR machine, the annealing was performed using the following gradients: • 95° C. for 5 min; 65° C. for 2 min; 55° C. for 2 min; 40° C. for 2 min; 22° C. for 2 min • 5) Pre-treatment of magnetic beads were bound with probes.
100 μL of magnetic beads were placed on a magnetic rack and the preservation solution was removed. 100 μL of 1*BW solution was added, mixed well, and placed on the magnetic rack, and the supernatant was then removed. The washing step was repeated three times. 100 μL of wash A buffer was added, mixed well, and placed on the magnetic rack, and the supernatant was then removed. The washing step was repeated three times. 100 μL of wash B buffer was added, mixed well, and placed on the magnetic rack, and the supernatant was then removed. The washing step was repeated three times. After 120 μL of sample was added, the sample and the magnetic beads solution were incubated for 30 min at room temperature, and they were gently mixed well while incubation. • 6) mRNA was spliced to obtain 5′ end mRNA single stranded sequence and binding with the probe.
20 μL of RNase H (5 U/mL) was added, incubated for 3 hours at 37° C., mixed once every half an hour. 100 μL of 1*BW solution was added, mixed well, and placed on the magnetic rack, and then the supernatant was removed. The washing step was repeated three times. Subsequently, 100 μL of deionized aqueous solution was added, mixed well, and placed on the magnetic rack, and the supernatant was then removed. The washing step was repeated three times. 100 μL of 75% methanol at 80° C. was added, and the mixture was incubated at 80° C. on a heater plate for 3 min, and placed on the magnetic rack, and the supernatant was then pipetted. The sample was dried using an evaporative centrifuge at room temperature for 45 min to 10 μL, and then resuspended in 50 μL of 100 μM EDTA solution in 1% MeOH for LC-MS analysis.
The capping efficiencies of mRNA with different cap analogs were determined by LC-MS, and some compounds of the results were shown in Table 4.

mRNA Decapping Enzyme = assay: Stability of the capped mRNA against the mRNA decapping enzymes
Protocol: • 1) The capped mRNAs were heated at 65° C. for 10 min and their secondary structures were unfolded. • 2) The concentration of mRNA Deacpping Enzyme was diluted from the original concentration (100 U/uL) to 50 U/uL, 5 U/uL, 0.5 U/uL in a 10-fold gradient dilution ratio. • 3) The capped mRNAs were added to the reaction, and the amount of enzyme in the reaction was 50 U, 5 U, 0.5 U, 0 U, respectively. The mixture was mixed with a pipette, and was incubated at 37° C. for 1 hour.
• 4) The RNA was purified using a LiCl Precipitation method, and then diluted to 500 ng/uL*20 uL for subsequent cell transfection. • 5) The cells were transfected with mRNA, and luciferase expression was detected in the same method as Experiment 2.
In FIG. 1, the luminescence unit of luciferase expressed by mRNA without decapping enzyme treatment (0 U) was 100%, and the percentage of the luminescence unit of luciferase expressed by capped mRNA treated with different concentrations of […] to the luminescence unit of luciferase expressed by capped mRNA without decapping enzyme treatment was calculated.

Sequence of T7 RNA Polymerase (P00573 whole entry): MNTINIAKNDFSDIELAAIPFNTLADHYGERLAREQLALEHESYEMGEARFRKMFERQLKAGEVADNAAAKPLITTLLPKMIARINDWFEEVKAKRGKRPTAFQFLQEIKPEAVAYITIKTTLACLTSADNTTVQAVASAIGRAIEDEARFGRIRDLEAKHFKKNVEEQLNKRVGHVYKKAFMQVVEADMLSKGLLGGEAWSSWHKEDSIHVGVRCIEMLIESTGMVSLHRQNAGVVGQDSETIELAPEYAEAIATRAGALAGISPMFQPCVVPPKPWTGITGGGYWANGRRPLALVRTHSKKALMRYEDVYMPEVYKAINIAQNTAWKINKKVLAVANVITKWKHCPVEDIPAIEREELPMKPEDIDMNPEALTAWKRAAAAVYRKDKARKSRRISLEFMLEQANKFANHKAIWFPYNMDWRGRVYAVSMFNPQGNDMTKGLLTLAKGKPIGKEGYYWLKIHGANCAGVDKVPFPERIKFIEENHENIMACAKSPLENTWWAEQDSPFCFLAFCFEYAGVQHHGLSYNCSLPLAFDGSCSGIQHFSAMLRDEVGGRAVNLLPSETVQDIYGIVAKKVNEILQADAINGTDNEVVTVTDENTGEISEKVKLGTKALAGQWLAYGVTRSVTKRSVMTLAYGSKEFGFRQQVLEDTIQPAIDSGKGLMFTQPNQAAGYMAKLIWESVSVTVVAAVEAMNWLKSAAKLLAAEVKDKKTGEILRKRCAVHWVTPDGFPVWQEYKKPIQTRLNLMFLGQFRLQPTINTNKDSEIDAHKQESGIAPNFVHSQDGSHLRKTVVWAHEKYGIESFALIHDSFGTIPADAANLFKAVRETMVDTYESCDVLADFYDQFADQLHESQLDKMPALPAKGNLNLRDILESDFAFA

Structure (SMILES): COC[C@H]1[C@@H](O)[C@H](n2c[n+](C)c3c(=O)[nH]c(N)nc32)O[C@@H]1COP(=O)(O)OP(=O)(O)CP(=O)(O)OC[C@H]1O[C@@H](n2cnc3c(N)ncnc32)[C@H](OC)[C@@H]1OP(=O)(O)OC[C@H]1O[C@@H](n2cnc3c(=O)[nH]c(N)nc32)[C@H](O)[C@@H]1O [Compound 173]
- Final product mass obtained from the 20 μL of mRNA transcription system (T7 RNA Polymerase): 118 µg
- Capping efficiency (mRNA): A (100% > A ≥ 95%)
- Stability of capped mRNA against decapping enzyme (FIG. 1) (mRNA Decapping Enzyme; at low concentration of decapping enzyme): the same stability as that of N-7413
- Stability of capped mRNA against decapping enzyme (FIG. 1) (mRNA Decapping Enzyme; when the concentration of decapping enzyme was higher): a better stability than that of N-7413
